Test [1] addresses Glutamate receptor ionotropic, NMDA 1 (Rattus norvegicus, UniProt P35439). In words: In vitro binding affinity for glycine site on the NMDA receptor.
In test [2] the test system is Rattus norvegicus. In words: Compound was evaluated in vivo for antagonistic activity against glycine site in NMDA induced convulsion model in rats after iv administration. It counts as functional.
For test [3], the system named is Rattus norvegicus. As to the kind of experiment: Compound was evaluated in vivo for antagonistic activity against glycine site in NMDA induced convulsion model in rats after ip administration. The test is classed as functional.

For `Oc1nc2ccc(Cl)nc2nc1O`, in test [1], the affinity corresponds to a Ki of 6170 nM. Same read-out and setting: the result for `Oc1nc2nc(Cl)c(Cl)c(Cl)c2nc1O` reads 110 nM. With `Oc1nc2cc(C(F)(F)F)c(Cl)nc2nc1O`, in the test on Rattus norvegicus [2], the 50% effect level (ED50) was put at a dose of 15 mg/kg. Further, in test [1], the Ki (in general, the equilibrium dissociation constant of an inhibitor or competing ligand from its target) was 427 nM. Take `[O-][n+]1c(Cl)c(Cl)cc2nc(O)c(O)nc21`: the figures for the ED50 in the test with Rattus norvegicus [3] and in the test on Rattus norvegicus [2] were 24 mg/kg and 14 mg/kg, respectively. In addition, in test [1], the Ki is 112 nM.

Take `Cc1c(Br)c(Cl)[n+]([O-])c2nc(O)c(O)nc12`: the affinity in test [1] corresponds to a Ki of 3020 nM.

Consider `Cc1c(Cl)c(Cl)[n+]([O-])c2nc(O)c(O)nc12`, for which it took a dose of 30 mg/kg to reach the 50% effect level in the test with Rattus norvegicus [3] (ED50). Moreover, the Ki in test [1] was 3160 nM. With `[O-][n+]1c(Cl)c(Br)cc2nc(O)c(O)nc21`, the figures for the ED50 with Rattus norvegicus [3] and in the test on Rattus norvegicus [2] were 45 mg/kg and 18 mg/kg, respectively. In test [1], the inhibitory constant (Ki) was 112 nM. `Cc1c(Br)c(Cl)nc2nc(O)c(O)nc12`: the median effective dose (ED50) – broadly, the dose that gives a 50% effect, or the effect in half of the subjects – with Rattus norvegicus [2] was 10 mg/kg. The molecule also showed a Ki in test [1] of 282 nM. In turn, `Cc1c(Br)cnc2nc(O)c(O)nc12` showed a Ki in test [1] of 1580 nM. This lies in the single-digit micromolar range. Turning to `Cc1c(Cl)c[n+]([O-])c2nc(O)c(O)nc12`, the ED50 in the test with Rattus norvegicus [3] came to 7 mg/kg; in the test on Rattus norvegicus [2], 3 mg/kg. In addition, the Ki in test [1] was 372 nM. On to `CCCc1nc2nc(O)c(O)nc2c(C)c1Cl`, for which affinity in test [1] was put at a Ki of 2750 nM. This counts as single-digit micromolar. Molecule `[O-][n+]1cc(I)cc2nc(O)c(O)nc21` returned a median effective dose (ED50) in the test with Rattus norvegicus [3] of 21 mg/kg. This molecule also had a Ki in test [1] of 741 nM. Consider `Oc1nc2cc(I)c(Cl)nc2nc1O`, for which the affinity in test [1] corresponds to a Ki of 204 nM. In turn, `Cc1c(I)cc2nc(O)c(O)nc2[n+]1[O-]` gave a Ki in test [1] of 224 nM. With `[O-][n+]1cc(C(F)(F)F)cc2nc(O)c(O)nc21`, the 50% effect level in the test with Rattus norvegicus [2] (ED50) was put at a dose of 15 mg/kg. The molecule also had a Ki in test [1] of 427 nM.

The molecule `Cc1c(I)cnc2nc(O)c(O)nc12` showed a Ki in test [1] of 1780 nM. Regarding `Cc1c(Cl)cnc2nc(O)c(O)nc12`, the ED50 with Rattus norvegicus [3] is 20 mg/kg. The molecule further had a Ki in test [1] of 2880 nM. The like results for `Cc1c(I)c[n+]([O-])c2nc(O)c(O)nc12` were, in that order, 30 mg/kg and 912 nM.

With `[O-][n+]1cc(C(F)(F)F)c(Cl)c2nc(O)c(O)nc21`, the ED50 in the test on Rattus norvegicus [3] was 50 mg/kg. The Ki in test [1] is 3720 nM. Take `Cc1c(Br)c[n+]([O-])c2nc(O)c(O)nc12`: the ED50 amounted to 9 mg/kg in the test on Rattus norvegicus [3] and 5 mg/kg with Rattus norvegicus [2]. This molecule also showed an inhibition constant Ki in test [1] of 537 nM.

The molecule `[O-][n+]1cc(Cl)cc2nc(O)c(O)nc21` showed a Ki in test [1] of 513 nM. This lies in the sub-micromolar range. Molecule `[O-][n+]1c(Cl)ccc2nc(O)c(O)nc21` showed a Ki in test [1] of 4680 nM. On the same count and under the same terms, the result for `Oc1nc2ncc(C(F)(F)F)c(Cl)c2nc1O` reads 1580 nM. In test [1], `Cc1nc2nc(O)c(O)nc2cc1I` gave a Ki of 468 nM.

In test [1], `Cc1nc2nc(O)c(O)nc2c(C)c1Cl` gave a Ki of 813 nM. As to `Oc1nc2cc(Cl)c(Cl)nc2nc1O`, the ED50 came to 41 mg/kg with Rattus norvegicus [3] and 0.7 mg/kg in the test with Rattus norvegicus [2]. Further, the Ki in test [1] was 186 nM. Regarding `Cc1c(Cl)c(Cl)nc2nc(O)c(O)nc12`, the affinity in test [1], expressed as Ki, was 191 nM. Take `Oc1nc2cc(Br)c(Cl)nc2nc1O`: the ED50 in the test with Rattus norvegicus [3] turned out to be 100 mg/kg; in the test on Rattus norvegicus [2] it was 20 mg/kg. For the molecule `Oc1nc2cc(C(F)(F)F)cnc2nc1O`, the ED50 worked out at 27 mg/kg in the test with Rattus norvegicus [3] and 13 mg/kg in the test on Rattus norvegicus [2]. Also, the affinity in test [1] corresponds to a Ki of 501 nM. On to `[O-][n+]1c(Cl)c(I)cc2nc(O)c(O)nc21`, for which, in test [1], the Ki was 209 nM. Same read-out and setting: the result for `CCCc1c(Cl)cc2nc(O)c(O)nc2[n+]1[O-]` reads 457 nM.

In the case of `[O-][n+]1c(Cl)c(C(F)(F)F)cc2nc(O)c(O)nc21`, the 50% effective dose (ED50) in the test with Rattus norvegicus [3] amounted to 60 mg/kg; in the test with Rattus norvegicus [2], 30 mg/kg. In test [1], this molecule showed a Ki of 513 nM. On to `CCCc1nc2nc(O)c(O)nc2cc1Cl`, for which, in test [1], the Ki was 1510 nM.
